Our source for the MIC values is patent US3974140A, “Ureidoacetamido-penicillins” (Bayer Aktiengesellschaft, priority 1970, dated 1976).

Each structure is given as a SMILES string. Where “and” joins values, the source holds several entries; their conditions need not be identical. Equal entries are not always repeated.

What all share (experiment): MIC, liquid medium test tube series dilution test
Assay [1] has as its system Staph. aureus 133. It is filed as cell-based, Staphylococcus aureus. Conditions: Staph. aureus 133, 24 hours, 37°C. The gist of the method: (§1)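 Liquid-medium tube serial dilution in complete nutrient medium, read after 24 h incubation at 37°C. MIC is the lowest concentration giving a non-turbid tube, expressed in units/ml.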
Assay [2] concerns Proteus vulg. 1017. It is filed as cell-based, Proteus vulgaris. Conditions: Proteus vulg. 1017, 24 hours, 37°C. The gist of the method:
as §1

The subject of assay [3] is Proteus vulg. 3400. It is filed as cell-based, Proteus vulgaris. Conditions: Proteus vulg. 3400, 24 hours, 37°C. Summed up: as §1
The subject of assay [4] is Psdm. aerug. Bonn. It is filed as cell-based, Pseudomonas aerug. The conditions noted are these: 24 hours, 37°C. Summed up:
as §1

The test system of assay [5] is Psdm. aerug. Walter. Format: cell-based, Pseudomonas aerug. The conditions noted are these: 24 hours, 37°C. Summed up:
as §1

Assay [6] has as its system Klebsiella K 10. It is filed as cell-based. The conditions noted are these: Klebsiella K 10, 24 hours, 37°C. The gist of the method: as §1
Assay [7] deals with E. coli A 261. It is filed as cell-based. The conditions noted are these: E. coli A 261, 24 hours, 37°C. The gist of the method: as §1
In assay [8] the test system is E. coli 183/58. Format: cell-based. The conditions noted are these: E. coli 183/58, 24 hours, 37°C. Summed up: as §1
Assay [9] deals with E. coli C 165. Format: cell-based. The conditions noted are these: E. coli C 165, 24 hours, 37°C. Summed up:
as §1

In assay [10] the test system is Klebsiella 63. Format: cell-based. Conditions: Klebsiella 63, 24 hours, 37°C. Summed up:
as §1

Assay [11] has as its system Streptoc. faec. ATCC 9790. Format: cell-based. Conditions: Strep. faec. (Enterococcus) ATCC 9790, 24 hours, 37°C. Summed up: as §1
In assay [12] the test system is E. coli 14. Format: cell-based. The conditions noted are these: E. coli 14, 24 hours, 37°C. Summed up:
as §1

As to `CN(C(=O)CCCCl)C(=O)N[C@@H](C(=O)N[C@@H]1C(=O)N2[C@@H]1SC(C)(C)[C@@H]2C(=O)O)c1ccccc1` [Example 24, Sodium D(-)-α-(3-γ-chlorobutyryl-3-methyl-ureido)-benzylpenicillin], the MIC in assay [1] is reported as ~ 1.6 units/ml; in assay [2], 100 units/ml; in assay [3] it was 50 units/ml; in assay [4], 100 units/ml; in assay [5], 100 units/ml; in [6], 50 units/ml. The MIC in [7] is more than 400 units/ml; in [8], 25 units/ml; in assay [9], 25 units/ml; in assay [10], 100 units/ml; in assay [11], 200 units/ml; in [12], 6.3 units/ml.

On to `CN(C(=O)CCC(F)(F)F)C(=O)N[C@@H](C(=O)N[C@@H]1C(=O)N2[C@@H]1SC(C)(C)[C@@H]2C(=O)O)c1ccccc1` [Example 69, Sodium D(-)-α-(3-γ-trifluorobutyryl-3-methyl-ureido)-benzylpenicillin], for which the MIC in [1] was less than 0.78 units/ml; in assay [2], 12.5 units/ml; in assay [3] it was 25 units/ml; in assay [4], 12.5 units/ml; in assay [5] it was 100 units/ml; in assay [6], 50 units/ml. Also, the MIC in [7] is 400 units/ml; in [8], 3.12 units/ml; in assay [9], 6.25 units/ml; in [10], 12.5 units/ml and 25 units/ml; in assay [11], 100 units/ml; in [12], 1.56 units/ml.

Turning to `CCC(=O)N(C(=O)N[C@@H](C(=O)N[C@@H]1C(=O)N2[C@@H]1SC(C)(C)[C@@H]2C(=O)O)c1ccccc1)c1ccccc1` [Example 143, Sodium D(-)-α-(3-propionyl-3-phenyl-ureido)-benzylpenicillin], the MIC is listed as less than 0.8 units/ml in [1]; 200 units/ml in assay [2]; 400 units/ml in [3]; 200 units/ml in assay [4]; 200 units/ml in assay [5]; 50 units/ml in assay [6]. In addition, the MIC in assay [7] is listed as more than 400 units/ml; in assay [8] it was 50 units/ml; in assay [9], 50 units/ml; in assay [10], 100 units/ml; in assay [11] it was 100 units/ml; in [12], 12.5 units/ml.

Regarding `Cc1noc(C)c1C(=O)N(C)C(=O)N[C@@H](C(=O)N[C@@H]1C(=O)N2[C@@H]1SC(C)(C)[C@@H]2C(=O)O)c1ccccc1` [Example 38], the MIC is given as less than 0.8 units/ml in assay [1]; 20-100 units/ml in [2]; 20-100 units/ml in assay [3]; 20-100 units/ml in [4]; 20-100 units/ml in [5]; 20-100 units/ml in assay [6]. Further, the MIC in [7] is on record as more than 500 units/ml; in assay [8], 4-20 units/ml; in assay [9] it was 4-20 units/ml; in assay [10], 20-100 units/ml; in assay [11], 100-500 units/ml; in [12] it was 0.8-4 units/ml.

In the case of `CC1(C)S[C@@H]2[C@H](NC(=O)[C@H](NC(=O)N(CCCl)C(=O)CCC(Cl)(Cl)Cl)c3ccccc3)C(=O)N2[C@H]1C(=O)O` [Example 72, Sodium D(-)-α-(3-γ-trichlorobutyryl-3-β-chloroethyl-ureido)-benzylpenicillin], the MIC in assay [1] is less than 0.78 units/ml; in assay [2], 50 units/ml; in assay [3], 200 units/ml; in assay [4] it was 50 units/ml; in [5], 400 units/ml; in assay [6], 100 units/ml. Besides, the MIC in assay [7] is 400 units/ml; in assay [8], 12.5 units/ml; in assay [9], 25 units/ml; in assay [10], 50 units/ml; in [11] it was 100 units/ml; in assay [12] it was 6.25 units/ml.

Regarding `C=CCN(C(=O)NC(C(=O)N[C@@H]1C(=O)N2[C@@H]1SC(C)(C)[C@@H]2C(=O)O)c1ccc(OC)cc1)C(=O)c1ccccc1` (stereo partly drawn) [Example 14, Sodium D,L-α-(3-benzoyl-3-allyl-ureido)-4-methoxybenzylpenicillin], the MIC in assay [1] is given as 0.8-4 units/ml; in [2], 100-500 units/ml; in assay [3] it was ~ 100 units/ml; in assay [4], 100-500 units/ml; in [5], 100-500 units/ml; in assay [6], 20-100 units/ml. Besides, the MIC in assay [7] was more than 500 units/ml; in assay [8] it was 20-100 units/ml; in [9], 20-100 units/ml; in [10], 20-100 units/ml; in assay [11], 100-500 units/ml; in assay [12], 4-20 units/ml.

For `CN(C(=O)N[C@@H](C(=O)N[C@@H]1C(=O)N2[C@@H]1SC(C)(C)[C@@H]2C(=O)O)c1ccccc1)C(=O)c1ccccc1[N+](=O)[O-]` [Example 140, Sodium D(-)-α-(3-o-nitrobenzoyl-3-methyl-ureido)-benzylpenicillin], the MIC in assay [1] is listed as less than 0.8 units/ml; in [2], 3.1 units/ml; in assay [3], 6.25 units/ml; in [4], 12.5 units/ml; in [5], 12.5 units/ml; in assay [6], 12.5 units/ml. Besides, the MIC in assay [7] is listed as 50 units/ml; in [8], 1.6 units/ml; in assay [9], 3.1 units/ml; in assay [10] it was 25 units/ml; in [11], 12.5 units/ml; in assay [12], 0.8 units/ml.

On to `CN(C(=O)CCCCl)C(=O)N[C@@H](C(=O)N[C@@H]1C(=O)N2[C@@H]1SC(C)(C)[C@@H]2C(=O)O)c1ccccc1` [Example 2, Sodium D(-)-α-(3-γ-chlorobutyryl-3-methyl-ureido)-benzylpenicillin], for which the MIC in assay [1] is ~ 0.8 units/ml; in assay [2], 100 units/ml; in [3], 25 units/ml; in [4], 100 units/ml; in [5] it was 100 units/ml; in assay [6], 50 units/ml. The MIC was found to be 400 units/ml in assay [7]; 12.5 units/ml in assay [8]; 12.5 units/ml in [9]; 50 units/ml in assay [10]; 200 units/ml in [11]; 3.1 units/ml in assay [12].

On to `COC(=O)N(C)C(=O)NC(C(=O)N[C@@H]1C(=O)N2[C@@H]1SC(C)(C)[C@@H]2C(=O)O)c1ccc(OC)cc1` (stereo partly drawn) [Example 18, Sodium D,L-α-(3-methoxycarbonyl-3-methyl-ureido)-4-methoxybenzylpenicillin], for which the MIC was 0.8-4 units/ml in [1]; 100-500 units/ml in assay [2]; 100-500 units/ml in assay [3]; 100-500 units/ml in [4]; 100-500 units/ml in assay [5]; 20-100 units/ml in assay [6]. Besides, the MIC is given as more than 500 units/ml in [7]; 20-100 units/ml in assay [8]; 20-100 units/ml in assay [9]; 20-100 units/ml in [10]; ~ 100 units/ml in [11]; 4-20 units/ml in assay [12].

Turning to `C=CCN(C(C)=O)C(=O)NC(C(=O)N[C@@H]1C(=O)N2[C@@H]1SC(C)(C)[C@@H]2C(=O)O)c1cccs1` (stereo partly drawn) [Example 17, Sodium D,L-α-(3-acetyl-3-allyl-ureido)-2-thienylmethylpenicillin], the MIC in assay [1] is listed as less than 0.8 units/ml; in assay [2] it was more than 500 units/ml; in assay [3] it was 100-500 units/ml; in assay [4], 100-500 units/ml; in assay [5] it was 100-500 units/ml; in [6], 20-100 units/ml. In addition, the MIC is given as more than 500 units/ml in assay [7]; 20-100 units/ml in assay [8]; 20-100 units/ml in assay [9]; 20-100 units/ml in assay [10]; 20-100 units/ml in assay [11]; 4-20 units/ml in assay [12].

In the case of `CN(C(=O)N[C@@H](C(=O)N[C@@H]1C(=O)N2[C@@H]1SC(C)(C)[C@@H]2C(=O)O)c1ccccc1)C(=O)c1cccs1` [Example 37, Sodium D(-)-α-[3-(2-thenoyl)-3-methyl-ureido]-benzylpenicillin], the MIC in assay [1] is reported as less than 0.8 units/ml; in assay [2] it was 4-20 units/ml; in [3], 4-20 units/ml; in assay [4], 4-20 units/ml; in assay [5], 4-20 units/ml; in assay [6], 20-100 units/ml. For the same compound, the MIC in assay [7] is reported as more than 500 units/ml; in [8] it was 0.8-4 units/ml; in assay [9] it was 0.8-4 units/ml; in assay [10] it was 4-20 units/ml; in assay [11], 20-100 units/ml; in assay [12] it was less than 0.8 units/ml.
